Data reported in patent US20060293307A1, “Oxazolidinone derivatives as antimicrobials” (priority 2002, published 2006).
Converted amounts (≈) assume the structure as drawn.

Experiments:
Test in all cases: MIC, agar incorporation method
S. pneumoniae AB 14 = assay type: cell-based, Streptococcus pneumoniae; details: S. No. 37, S. pneumoniae AB 14
E. durans 581 = assay type: cell-based; details: S. No. 24, E. durans 581
S. pneumoniae CS1221 = assay type: cell-based, Streptococcus pneumoniae; details: S. No. 34, S. pneumoniae CS1221
[1] = test system: Serratia marcescens 12999; assay type: cell-based; details: S. No. 29, Serratia marcescens 12999
S. pneumoniae AB 30 = assay type: cell-based, Streptococcus pneumoniae; details: S. No. 47, S. pneumoniae AB 30
S. pneumoniae AB 23 = assay type: cell-based, Streptococcus pneumoniae; details: S. No. 43, S. pneumoniae AB 23
S. pneumoniae AB 21 = assay type: cell-based, Streptococcus pneumoniae; details: S. No. 41, S. pneumoniae AB 21
E. faecalis 21777 = assay type: cell-based; details: S. No. 18, E. faecalis 21777
S. pyogenes 19615 = assay type: cell-based, Streptococcus pyogenes; details: S. No. 51, S. pyogenes 19615
S. aureus ATCC 25923 = assay type: cell-based, Staphylococcus aureus; details: S. No. 1, organism cell empty
S. pneumoniae AB 29 = assay type: cell-based, Streptococcus pneumoniae; details: S. No. 46, S. pneumoniae AB 29
[2] = test system: S. epidermidis ATCC 12228; assay type: cell-based, Staphylococcus epidermidis; details: S. No. 10, S. epidermidis ATCC 12228
S. pneumoniae AB 17 = assay type: cell-based, Streptococcus pneumoniae; details: S. No. 40, S. pneumoniae AB 17
[3] = test system: S. aureus (MRSA 33) Cipro R; assay type: cell-based, Staphylococcus aureus; details: S. No. 7, S. aureus (MRSA 33) Cipro R
P. aeruginosa ATCC 27853 = assay type: cell-based; details: S. No. 28, P. aeruginosa ATCC 27853
S. epidermidis 358 = assay type: cell-based, Staphylococcus epidermidis; details: S. No. 14, S. epidermidis 358
S. haemo ATCC 29970 = assay type: cell-based; details: S. No. 15, S. haemo ATCC 29970
S. pneumoniae AB 25 = assay type: cell-based, Streptococcus pneumoniae; details: S. No. 45, S. pneumoniae AB 25
S. aureus (MRSA) 21299 = assay type: cell-based, Staphylococcus aureus; details: S. No. 5, S. aureus (MRSA) 21299
S. pneumoniae AB4 = assay type: cell-based, Streptococcus pneumoniae; details: S. No. 33, S. pneumoniae AB4
E. faecium 398(VRE) = assay type: cell-based, Enterococcus faecium; details: S. No. 22, E. faecium 398(VRE)
Moraxella M1 = assay type: cell-based; details: S. No. 58, Moraxella M1
E. faecalis 29212 = assay type: cell-based; details: S. No. 17, E. faecalis 29212
S. pyogenes 25147 = assay type: cell-based, Streptococcus pyogenes; details: S. No. 52, S. pyogenes 25147
E. faecium 6A (VRE) = assay type: cell-based, Enterococcus faecium; details: S. No. 21, E. faecium 6A (VRE)
S. pneumoniae AB 10 = assay type: cell-based, Streptococcus pneumoniae; details: S. No. 35, S. pneumoniae AB 10
K. oxytoca 49131 = assay type: cell-based; details: S. No. 27, K. oxytoca 49131
S. epidermidis 823 = assay type: cell-based, Staphylococcus epidermidis; details: S. No. 12, S. epidermidis 823
Acinetobacter 9956 = assay type: cell-based; details: S. No. 30, Acinetobacter 9956
S. pneumoniae ATCC 6303 = assay type: cell-based, Streptococcus pneumoniae; details: S. No. 50, S. pneumoniae ATCC 6303
S. pneumoniae AB 22 = assay type: cell-based, Streptococcus pneumoniae; details: S. No. 42, S. pneumoniae AB 22
S. pneumoniae AB 16 = assay type: cell-based, Streptococcus pneumoniae; details: S. No. 39, S. pneumoniae AB 16
S. aureus (MRSA) 15187 = assay type: cell-based, Staphylococcus aureus; details: S. No. 4, S. aureus (MRSA) 15187
S. pyogenes 20361 = assay type: cell-based, Streptococcus pyogenes; details: S. No. 53, S. pyogenes 20361
S. pneumoniae AB-2 = assay type: cell-based, Streptococcus pneumoniae; details: S. No. 31, S. pneumoniae AB-2
E. coli 25922 = assay type: cell-based; details: S. No. 25, E. coli 25922

Structure (SMILES) | MIC (S. pneumoniae AB 14) [µg/mL] | MIC (E. durans 581) [µg/mL] | MIC (S. pneumoniae CS1221) [µg/mL] | MIC [1] [µg/mL] | MIC (S. pneumoniae AB 30) [µg/mL] | MIC (S. pneumoniae AB 23) [µg/mL] | MIC (S. pneumoniae AB 21) [µg/mL] | MIC (E. faecalis 21777) [µg/mL] | MIC (S. pyogenes 19615) [µg/mL] | MIC (S. aureus ATCC 25923) [µg/mL] | MIC (S. pneumoniae AB 29) [µg/mL] | MIC [2] [µg/mL] | MIC (S. pneumoniae AB 17) [µg/mL] | MIC [3] [µg/mL] | MIC (P. aeruginosa ATCC 27853) [µg/mL] | MIC (S. epidermidis 358) [µg/mL] | MIC (S. haemo ATCC 29970) [µg/mL] | MIC (S. pneumoniae AB 25) [µg/mL] | MIC (S. aureus (MRSA) 21299) [µg/mL] | MIC (S. pneumoniae AB4) [µg/mL] | other results
CC(=O)NC[C@H]1CN(c2ccc(N3CCN(c4cc(C(OC(C)=O)OC(C)=O)sc4[N+](=O)[O-])CC3)c(F)c2)C(=O)O1 [Compound No. 5, (S)—N-[[3-[3-Fluoro-4-[4-{3-thienyl(2-nitro)-5-acetyloxy}methylacetate]-1-piperazinyl]phenyl]-2-oxo-5-oxazolidinyl]acetamide] | 0.5 (≈ 0.842 µM) | 2 (≈ 3.37 µM) | 0.5 (≈ 0.842 µM) | >8 | 0.5 (≈ 0.842 µM) | 0.5 (≈ 0.842 µM) | 0.5 (≈ 0.842 µM) | 1 (≈ 1.68 µM) | 0.5 (≈ 0.842 µM) | 0.5 (≈ 0.842 µM) | 0.5 (≈ 0.842 µM) | <0.06 | 0.5 (≈ 0.842 µM) | 0.25 (≈ 0.421 µM) | >8 | <0.06 | <0.06 | 0.5 (≈ 0.842 µM) | 0.25 (≈ 0.421 µM) | 0.5 (≈ 0.842 µM) | MIC (E. faecium 398(VRE)): 1 µg/mL (≈ 1.68 µM); MIC (Moraxella M1): 4 µg/mL (≈ 6.74 µM); MIC (E. faecalis 29212): 2 µg/mL (≈ 3.37 µM); MIC (S. pyogenes 25147): 0.5 µg/mL (≈ 0.842 µM); MIC (E. faecium 6A (VRE)): 2 µg/mL (≈ 3.37 µM); MIC (S. pneumoniae AB 10): 0.25 µg/mL (≈ 0.421 µM); MIC (K. oxytoca 49131): >8 µg/mL; MIC (S. epidermidis 823): <0.06 µg/mL; MIC (Acinetobacter 9956): >8 µg/mL; MIC (S. pneumoniae ATCC 6303): 0.5 µg/mL (≈ 0.842 µM); MIC (S. pneumoniae AB 22): 0.5 µg/mL (≈ 0.842 µM); MIC (S. pneumoniae AB 16): 0.5 µg/mL (≈ 0.842 µM); MIC (S. aureus (MRSA) 15187): 0.25 µg/mL (≈ 0.421 µM); MIC (S. pyogenes 20361): 0.5 µg/mL (≈ 0.842 µM); MIC (S. pneumoniae AB-2): 0.25 µg/mL (≈ 0.421 µM); MIC (E. coli 25922): >8 µg/mL
C[C@H](Cl)C(=O)NCC1CN(c2ccc(N3CCN(c4ccc([N+](=O)[O-])s4)CC3)c(F)c2)C(=O)O1 (stereo partly drawn) [Compound No. 7, (S)—N-[[3-[3-Fluoro-4-[N-1-{4-(5-nitro-2-thienyl)piperazinyl}]-phenyl]-2-oxo-5-oxazolidinyl]-methyl]-2-chloro-propionamide] | 1 (≈ 1.95 µM) | 8 (≈ 15.6 µM) | 0.5 (≈ 0.977 µM) | >8 | 0.5 (≈ 0.977 µM) | 1 (≈ 1.95 µM) | 1 (≈ 1.95 µM) | >8 | 2 (≈ 3.91 µM) | >8 | 0.5 (≈ 0.977 µM) | 1 (≈ 1.95 µM) | 1 (≈ 1.95 µM) | >8 | >8 | 2 (≈ 3.91 µM) | 2 (≈ 3.91 µM) | 0.5 (≈ 0.977 µM) | >8 | 0.5 (≈ 0.977 µM) | MIC (E. faecium 398(VRE)): 8 µg/mL (≈ 15.6 µM); MIC (Moraxella M1): >8 µg/mL; MIC (E. faecalis 29212): >8 µg/mL; MIC (S. pyogenes 25147): 2 µg/mL (≈ 3.91 µM); MIC (E. faecium 6A (VRE)): >8 µg/mL; MIC (S. pneumoniae AB 10): 0.5 µg/mL (≈ 0.977 µM); MIC (K. oxytoca 49131): >8 µg/mL; MIC (S. epidermidis 823): 2 µg/mL (≈ 3.91 µM); MIC (Acinetobacter 9956): >8 µg/mL; MIC (S. pneumoniae ATCC 6303): 0.5 µg/mL (≈ 0.977 µM); MIC (S. pneumoniae AB 22): 1 µg/mL (≈ 1.95 µM); MIC (S. pneumoniae AB 16): 1 µg/mL (≈ 1.95 µM); MIC (S. aureus (MRSA) 15187): >8 µg/mL; MIC (S. pyogenes 20361): 2 µg/mL (≈ 3.91 µM); MIC (S. pneumoniae AB-2): 0.5 µg/mL (≈ 0.977 µM); MIC (E. coli 25922): >8 µg/mL
